Laboratory results reported in paper PMC8197120, “Synthesis and Characterization of Some New Quinoxalin-2(1H)one and 2-Methyl-3H-quinazolin-4-one Derivatives Targeting the Onset and Progression of CRC with SAR, Molecular Docking, and ADMET Analyses” (Molecules, 2021).
Values after ≈ are worked out from the molar mass of the structure shown. Like-named read-outs stand apart in the source and are kept apart here.

What was measured:
[1] = biological target: purified recombinant human LDHA protein (Homo sapiens, UniProt P00338); assay: Lactate dehydrogenase-A (LDHA) inhibition assay, NADH consumption; format: biochemical; conditions: for fold by which (6e) is more potent than the labelled compound (LDHA inhibition efficiency): comparator 6e; for inhibition at 100 µg/mL: read-out: Mean Inhibition % at 100 µg/ml ± SD; for inhibition at 200 µg/mL: read-out: Mean Inhibition % at 200 µg/ml ± SD
Experimental: LDHA inhibition activity was investigated by measuring the amounts of consumed NADH as described by Kim and his group. Briefly, different concentrations of each compound (50, 100, 200, and 300 µg) were incubated in buffer containing 20 mM of HEPES-K+ (pH 7.2), 20 μM of NADH, 2 mM of pyruvate, and 10 ng of purified recombinant human LDHA protein for 10 min. The fluorescence of NADH, which has an excitation wavelength of 340 nm and emission wavelength of 460 nm, was detected using a Spectrofluorometer.

[2] = system: Escherichia coli (ATCC 25922); assay: Antibacterial activity, CFU viability; format: cell-based; conditions: ATCC25922, mean of two determinations, read-out: Mean IC50 ± SD
Experimental: (§1) Pure standard microbial isolates collected from King Khaled University Hospital were tested in this study, including Enterococcus faecalis (ATCC 29122) as Gram positive bacteria and Escherichia coli (ATCC 25922) and Bacteroides fragilis (ATCC 25285) as Gram negative bacteria. Fresh cultures of each microorganism were grown on nutrient agar plates (Oxoid, UK), of which small inoculums were suspended in 5 mL nutrient broth for bacterial suspension preparation of 0.5MacFarland. Bacterial viability was investigated by estimating the colony-forming unit (CFU) ability of the bacteria incubated at different time intervals without or with appropriate amounts of the compound that were mixed with 2 × 10^7 CFU/mL in sterile BHI broths and were incubated under shaking for 60 min at 37 °C. Samples were serially diluted into sterile BHI broths, streaked onto media agar plates, and incubated for 24 h at 37 °C. The antibacterial potency of tested compounds was expressed as the residual number of CFU with reference to the initial inoculums. […] Ampicillin (1 mg/mL) was used as a positive standard reference.

[3] = system: Bacteroides fragilis (ATCC 25285); assay: Antibacterial activity, CFU viability; format: cell-based; conditions: ATCC25285, mean of two determinations, read-out: Mean IC50 ± SD
Experimental: as §1

[4] = system: Enterococcus faecalis (ATCC 29122); assay: Antibacterial activity, CFU viability; format: cell-based; conditions: ATCC29122, mean of two determinations, read-out: Mean IC50 ± SD
Experimental: as §1

[5] = biological target: T1, COX-2 (Homo sapiens, UniProt P35354); assay: Cyclooxygenase (COX-2) inhibition assay (Cayman kit 701080); format: biochemical; conditions: for inhibition at 100 µg/mL: read-out: Mean Inhibition % at 100 µg/ml ± SD; for inhibition at 200 µg/mL: read-out: Mean Inhibition % at 200 µg/ml ± SD
T1 construct: purchased Cayman Chemical Company 701080
T1 sequence (P35354 18-604): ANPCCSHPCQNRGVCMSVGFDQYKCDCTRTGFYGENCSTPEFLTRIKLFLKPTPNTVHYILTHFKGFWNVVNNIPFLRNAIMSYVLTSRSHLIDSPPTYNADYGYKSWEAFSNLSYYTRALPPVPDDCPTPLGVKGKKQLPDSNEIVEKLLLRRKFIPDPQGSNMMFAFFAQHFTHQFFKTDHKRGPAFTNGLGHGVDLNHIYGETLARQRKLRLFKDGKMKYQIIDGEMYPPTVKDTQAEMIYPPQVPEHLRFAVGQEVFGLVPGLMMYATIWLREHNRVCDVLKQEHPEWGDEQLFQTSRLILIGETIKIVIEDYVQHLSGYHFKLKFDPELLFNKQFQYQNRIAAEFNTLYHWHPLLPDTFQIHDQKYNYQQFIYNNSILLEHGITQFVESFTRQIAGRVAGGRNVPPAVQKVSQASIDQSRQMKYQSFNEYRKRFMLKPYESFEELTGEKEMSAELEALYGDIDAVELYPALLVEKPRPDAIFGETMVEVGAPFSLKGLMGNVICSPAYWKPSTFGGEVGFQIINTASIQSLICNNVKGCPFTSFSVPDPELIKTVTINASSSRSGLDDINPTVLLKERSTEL
Experimental: The compounds were resuspended in 100% DMSO at a final concentration of 10 mg/mL. […] The inhibitory activity was expressed as the inhibition percentage, which was determined by comparison with a control experiment. IC50 values were deduced from the curves.

[6] = In vitro cytotoxicity assay (LDH release); format: cell-based, human; conditions: human
Experimental: The best-in-class compounds, including (4c), (4d), (6a), (6b), (6d), (6e), and (6g), which were recognized as antimicrobial and enzymatic inhibitors, were further examined for their cytotoxic effects on LoVo and HCT-116 cells of human colon cancer. This was carried out by determining the residual percentages of viable cells after being treated with the compounds at different concentrations (50, 100, 200, and 400 µg/mL), using triton X-100 (at concentration of 0.1%) in the assay medium and the assay as the positive and negative controls, respectively.
Samples were diluted in Dulbecco’s modified Eagles medium, consisting of 10% fetal bovine serum, added to cells grown and cultured for 24 h in a 5% CO2-humidified incubator at 37 °C. Then, the activity of lactate dehydrogenase released from damaged cells was determined in the collected supernatant aliquots using an ELISA end-point assay (Benchmark Plus, Bio-Rad, CA, USA). The 0.1% Triton X-100 in the assay medium and the assay medium only were used as positive and negative controls, respectively. Cell viability, expressed as a relative percentage of the OD values (at 550 nm) for compound-treated cells (final concentration of 200 µg) and the control, is shown as mean ± SD (n = 2).

[7] = HCT-116 colon cancer cells, read-out: Mean % Cell Viability ± SD CRC-HCT-116 cells
[8] = LoVo colon cancer cells, read-out: Mean % Cell Viability ± SD CRC-LoVo cells

| inhibition at 100 µg/mL ([1]; LDHA) [%] | inhibition at 200 µg/mL ([1]; LDHA) [%] | IC50 [2] [µg/mL] | IC50 [3] [µg/mL] | IC50 [4] [µg/mL] | inhibition at 100 µg/mL [5] [%] | inhibition at 200 µg/mL [5] [%] | IC50 ([1]; LDHA) [µM] | SMILES | fold by which (6e) is more potent than the labelled compound (LDHA inhibition efficiency) ([1]; 200 µg/mL) [fold] | fold decrease of LDHA inhibition efficiency relative to (6g) ([1]; 200 µg/mL, comparator 6g) [fold] | viability at 24 h, 200 µg/mL [6, 7] [%] | viability at 24 h, 200 µg/mL [6, 8] [%] | IC50 at 24 h ([6]; HCT-116 human colon cancer cells, HCT-116 cells) [µg/mL] | IC50 at 24 h ([6]; LoVo human colon cancer cells, LoVo cells) [µg/mL] | IC50 [5] [µM] |
| --- | --- | --- | --- | --- | --- | --- | --- | --- | --- | --- | --- | --- | --- | --- | --- |
| 40.6 ± 2.33 | 64.2 | 12.7 ± 0.778 (≈ 35.6 µM) | 8.05 ± 0.778 (≈ 22.7 µM) | 9.6 (≈ 27 µM) | 36.5 ± 3.46 | 61.1 | – | COc1cc(C=NNc2nc3ccccc3[nH]c2=O)cc([N+](=O)[O-])c1O [Compound 4c, 3-[N’-(4-Hydroxy-3-methoxy-5-nitro-benzylidene)-hydrazino]-1H-quinoxalin-2-one] | – | – | 77.3 ± 3.25 | 72.2 ± 4.45 | – | – | – |
| 21.1 ± 2.19 | 31.2 | 31.4 ± 1.48 (≈ 91.3 µM) | 27.1 ± 1.84 (≈ 78.7 µM) | 18.2 ± 0.99 (≈ 52.8 µM) | 30.3 ± 1.84 | 54 | – | COc1ccc2cc(C=NNc3nc4ccccc4[nH]c3=O)ccc2c1 [Compound 4e, 3-[N’-(6-Methoxy-naphthalen-2-ylmethylene)-hydrazino]-1H-quinoxalin-2-one] | – | – | – | – | – | – | – |
| 53.6 | 89.8 | 24.8 ± 1.77 (≈ 78.5 µM) | 19.9 ± 2.26 (≈ 63.1 µM) | 17.2 ± 1.77 (≈ 54.7 µM) | 28.8 ± 2.47 | 48.6 ± 3.75 | 334 | CCc1ccc(C=Nn2c(C)nc3ccc(F)cc3c2=O)s1 [Compound 6g, 3-[(5-Ethyl-thiophen-2-ylmethylene)-amino]-6-fluoro-2-methyl-3H-quinazolin-4-one] | – | – | 86.5 ± 2.12 | 88.2 ± 2.62 | – | – | – |
| 26.7 ± 1.84 | 47.1 | 13.7 ± 1.34 (≈ 77.5 µM) | 14.5 ± 0.99 (≈ 82.3 µM) | 13.6 ± 0.566 (≈ 77.2 µM) | 7.55 ± 0.778 | 15.4 ± 2.19 | – | NN=c1[nH]c2ccccc2[nH]c1=O [Compound 2, 3-hydrazineylidene-3,4-dihydro quinoxalin-2(1H)-one] | – | – | – | – | – | – | – |

| SMILES | inhibition at 100 µg/mL ([1]; LDHA) [%] | inhibition at 200 µg/mL ([1]; LDHA) [%] | IC50 [2] [µg/mL] | IC50 [3] [µg/mL] | IC50 [4] [µg/mL] | inhibition at 100 µg/mL [5] [%] | inhibition at 200 µg/mL [5] [%] | IC50 ([1]; LDHA) [µM] | fold by which (6e) is more potent than the labelled compound (LDHA inhibition efficiency) ([1]; 200 µg/mL) [fold] | fold decrease of LDHA inhibition efficiency relative to (6g) ([1]; 200 µg/mL, comparator 6g) [fold] | viability at 24 h, 200 µg/mL [6, 7] [%] | viability at 24 h, 200 µg/mL [6, 8] [%] | IC50 at 24 h ([6]; HCT-116 human colon cancer cells, HCT-116 cells) [µg/mL] | IC50 at 24 h ([6]; LoVo human colon cancer cells, LoVo cells) [µg/mL] | IC50 [5] [µM] |
| --- | --- | --- | --- | --- | --- | --- | --- | --- | --- | --- | --- | --- | --- | --- | --- |
| Cc1nc2ccc(Cl)cc2c(=O)n1N [Compound 5b] | 11.8 ± 1.06 | 21.2 | 13.6 ± 1.48 (≈ 64.6 µM) | 37 ± 2.83 (≈ 176 µM) | 27.5 ± 2.12 (≈ 131 µM) | 5.7 ± 0.99 | 9.05 | – | 3.6 | – | – | – | – | – | – |
| CCc1ccc(/C=N/n2c(C)nc3ccc(Cl)cc3c2=O)s1 [Compound 6f, 6-Chloro-3-oro-3-[(5-ethyl-thiophen-2-ylmethylene)-amino]-2-methyl-3H-quinazolin-4-one] | 27.1 ± 1.48 | 40 | 33.4 ± 3.39 (≈ 101 µM) | 27.9 ± 1.56 (≈ 84.1 µM) | 22.6 ± 0.636 (≈ 68 µM) | 10 ± 1.41 | 20.7 | – | 1.9 | 2.2 | – | – | – | – | – |
| COc1cc2nc(C)n(N=Cc3ccc(OCc4ccccc4)c(OC)c3)c(=O)c2cc1OC [Compound 6d, 3-[(4-Benzyloxy-3-methoxy-benzylidene)-amino]-6,7-dimethoxy-2-methyl-3H-quinazolin-4-one] | 31.2 ± 1.63 | 44.4 ± 3.39 | 18.4 ± 1.27 (≈ 40 µM) | 9 ± 0.99 (≈ 19.6 µM) | 15.2 ± 0.919 (≈ 33 µM) | 50.2 | 97.5 | – | 1.7 | – | 18.5 | 26.8 | 100 (≈ 218 µM) | 128 (≈ 277 µM) | 215 |
